Results as given in paper PMC4795541, “A Rapid and Quantitative Flow Cytometry Method for the Analysis of Membrane Disruptive Antimicrobial Activity” (PLoS ONE, 2016).
Values after ≈ are worked out from the molar mass of the structure shown. Where two headings read alike, the source gives them in different places. Marks after values point to notes of the source that are not given here. Where no end group is shown, it is not given here.

Assays:
S. mutans Ingbritt [1] = system: S. mutans Ingbritt
Source text: (§1) The bacterial strains; Fusobacterium nucleatum ATCC 25586, Streptococcus mutans Ingbritt, Staphylococcus aureus (MSSA) ATCC 29213; Staphylococcus aureus (MRSA) ATCC 43300; Enterococcus faecalis ATCC 29212; Enterobacter aerogenes ATCC 13048; Pseudomonas aeruginosa strain PAO1-LAC, ATCC 47085; Klebsiella pneumoniae ATCC 13883; Acinetobacter baumannii strain 2208, ATCC 19606; Escherichia coli ATCC 25922 lyophilised or glycerol stocks were obtained from the culture collection of the Oral Health Cooperative Research Centre, The Melbourne Dental School, University of Melbourne, Australia. These strains were selected for this study as they are widely used in antimicrobial studies and are considered to be important pathogens and major targets for antibiotic resistant studies. Bacteria were grown aerobically and maintained by passage at ambient temperature (E. coli, K. pneumoniae, A. baumannii and S. aureus strains) or at 37°C (P. aeruginosa, E. faecalis and E. aerogenes) on horse blood agar (10% v/v defibrinated horse blood, 4.4% w/v Oxoid Blood Agar Base No. 2). S. mutans and F. nucleatum were grown anaerobically (MK3 anaerobic workstation, Don Whitley Scientific Limited, England) and maintained by passage at 37°C on Todd Hewitt agar (3.6% w/v Oxoid Todd-Hewitt Broth, 1.5% w/v sucrose, 1.5% w/v BactoTM Agar, 0.8% w/v Oxoid Yeast Extract) or horse blood agar, respectively. For the antimicrobial peptide assays a 20 mL starter culture was produced by taking single colonies from blood or Todd Hewitt agar plates, respectively, to inoculate either: Luria Broth (LB; 1% w/v BactoTM Tryptone, 1% w/v NaCl, 0.5% w/v Oxoid Yeast Extract, pH 7.5, Thermo Scientific Pty, Ltd, Sydney, Australia) for bacteria; E. coli, K. pneumoniae, P. aeruginosa, A. baumannii, E. faecalis, E. aerogenes and S. aureus which were grown aerobically at 37°C, or Todd Hewitt broth (3.6% w/v Oxoid Todd-Hewitt Broth, 1.5% w/v sucrose, 0.8% w/v Oxoid Yeast 9 Extract) for S. mutans, or Brain Heart Infusion broth (BHI; 3.7% w/v Oxoid BHI, 0.05% w/v L-cysteine) for F. nucleatum which were both grown anaerobically at 37°C. After overnight incubation, 0.5–2.0 mL of the starter culture was used to inoculate the appropriate fresh broth (200 mL) and growth monitored at 650 nm using a spectrophotometer (model 275E; Perkin-Elmer, Sydney, Australia) with culture purity checked by microscopic examination and culture. Bacteria were harvested during late exponential growth phase and viability and bacteria/mL determined using a BacLight viability kit (Invitrogen, Sydney, Australia) and a Quanta SC-MPL flow cytometer (Beckman coulter Pty, Ltd, Sydney, Australia).
(§2) Antibacterial assays were undertaken to determinate the minimum inhibitory concentration (MIC), minimum bactericidal concentration (MBC) and minimum membrane disruptive concentration (MDC) of each of the antimicrobial peptides (AMP) and AMP analogues (S1 Table). For each bacterim a stock solution (2.5 × 10^6 cells/mL) in the respective media was made and an aliquot incubated with AMPs within 15 minutes from viable cell count and stock preparation. All AMPs were dissolved in DMSO and a 500 μM stock solution prepared by adding the respective media and serial dilutions (250–0.244 μM) of the AMP in media (100 μL/well) made just prior addition of bacteria. […] One hundred microliter aliquots of the bacterial stock solution (2.5 × 10^5 cells/well) were added to the AMP serial dilutions and incubated at 37°C for 90 min. Assay preparation and incubations were conducted in aerobic or anaerobic conditions dependent on the bacteria. Bacteria were also incubated in the absence of AMP to serve as a growth control for the assay. After the 90 minute incubation period the antimicrobial activity (MIC, MBC and MDC) was determined as follows;
(§3) For MIC the CLSI broth microdilution assay was followed as we have previously described.

F. nucleatum ATCC 25586 [2] = system: F. nucleatum ATCC 25586
Source text: as §1, §2, §3

S. mutans Ingbritt [3] = system: S. mutans Ingbritt; remark: listed apart in the source
Source text: as §1, §2
(§4) For determination of MBC, the CLSI protocol was followed, with the modifications being that due to the rapid action of the AMPs the assay incubation time was shortened from 16–20 hours to 90 minutes.

F. nucleatum ATCC 25586 [4] = system: F. nucleatum ATCC 25586; remark: listed apart in the source
Source text: as §1, §2, §4

sheep red blood cells = test: Hemolysis assay; type: cell-based
Experimental: Fresh sheep red blood cells in Alsever’s solution (RBCs, Equicell, Victoria, Australia) were diluted 1 in 20 in PBS (pH 7.4), pelleted by centrifugation, and washed three times in PBS (1000 g, 10 min). The RBCs were counted using a cell counter (Coulter Particle Counter Z series, Beckman Coulter) and diluted to a final concentration of 2 × 10^7 cells/mL. […] Following incubation, the RBCs were pelleted centrifuged (1000 g, 10 min) and the amount of haemoglobin in 100 μL aliquots determined by measuring the absorbance at 405 nm using a microplate reader (PerkinElmer 1420 Multilabel Counter VICTOR3). Positive and negative controls for hemolysis were taken as RBC lysed with 0.5% Triton X-100 (1:1 v/v) and RBC suspension in PBS, respectively. The percentage of hemolysis was calculated using the following formula: % Hemolysis = [(A405 test sample—A405 negative control) / (A405 positive control—A405 negative control)] × 100
The percentage hemolysis was plotted against peptide concentration and linear regression analysis was used to determine the hemolytic concentration needed to lyse 50% (HC50) of RBCs.

[5] = system: HEK-293 (ATCC CRL-1573) cells; test: Inhibition of cell proliferation assay (MTS); type: cell-based
Experimental: After 28 h, 20 μL of 3-(4,5-dimethylthiazol-2-yl)-5-(3-carboxymethoxyphenyl)-2-(4-sulfophenyl)-2H-tetrazolium (MTS) solution (CellTiter 96 AQueous Non-Radioactive Cell Proliferation Assay kit, Promega) were added to each well and the plates were incubated for a further 1–2 h at 37°C, 5% CO2 incubator. Cell proliferation was determined by measuring absorbance at 490 nm using a microplate reader (PerkinElmer 1420 Multilabel Counter VICTOR3). Positive and negative controls for inhibition were taken as HEK-293 cells incubated with mytomycin C (5 μg/mL, Sigma Pty Ltd) and HEK-293 cells incubated in media alone, respectively. The percentage of inhibition was calculated using the following formula: % Inhibition = [(A490 test sample—A490 negative control) / (A490 positive control—A490 negative control)] × 100
The percentage of inhibition was plotted against peptide concentration and linear regression analysis was used to determine the AMP concentration needed to inhibit 50% (IC50) of the HEK-293 cells.

Q: `CC[C@H](C)[C@H](NC(=O)CN)C(=O)NCC(=O)N[C@@H](C)C(=O)N[C@H](C(=O)N[C@@H](CC(C)C)C(=O)N[C@@H](CCCCN)C(=O)N[C@H](C(=O)N[C@@H](CC(C)C)C(=O)N[C@H](C(=O)N[C@H](C(=O)NCC(=O)N[C@@H](CC(C)C)C(=O)N1CCC[C@H]1C(=O)N[C@@H](C)C(=O)N[C@@H](CC(C)C)C(=O)N[C@H](C(=O)N[C@@H](CO)C(=O)N[C@@H](Cc1c[nH]c2ccccc12)C(=O)N[C@H](C(=O)N[C@@H](CCCCN)C(=O)N[C@@H](CCCNC(=N)N)C(=O)N[C@@H](CCCCN)C(=O)N[C@@H](CCCNC(=N)N)C(=O)N[C@@H](CCC(N)=O)C(=O)N[C@@H](CCC(N)=O)C(N)=O)[C@@H](C)CC)[C@@H](C)CC)[C@@H](C)O)[C@@H](C)O)C(C)C)C(C)C` [Melittin] was tested. Which MIC (S. mutans Ingbritt [1]; S. mutans Ingbritt, 90 min peptide/bacteria incubation at 37°C, then growth at OD650, average of 3 assays ± SD) did it give?
A: 6.1 ± 0.9 µM (≈ 17.4 µg/mL)

Q: And the MIC (F. nucleatum ATCC 25586 [2]; F. nucleatum ATCC 25586, 2.5 × 10^5 cells/well, 90 min peptide/bacteria incubation at 37°C, then growth at OD650, average of 3 assays ± SD)?
A: 4.4 ± 0.3 µM (≈ 12.5 µg/mL)

Q: What about the “average MIC/MBC value” (F. nucleatum ATCC 25586 [2]; F. nucleatum, average of MIC and MBC) of the same compound?
A: 4.0 µM

Q: What about the MBC (S. mutans Ingbritt [3]; S. mutans Ingbritt, 90 min peptide/bacteria incubation, CFU on agar, ≥ 99.9% reduction, average of 3 assays ± SD) of the same compound?
A: 4.2 ± 2.4 µM (≈ 12 µg/mL)

Q: What about the MBC (F. nucleatum ATCC 25586 [4]; F. nucleatum ATCC 25586, 90 min peptide/bacteria incubation, CFU on agar, ≥ 99.9% reduction, average of 3 assays ± SD) of the same compound?
A: 3.8 ± 0.4 µM (≈ 10.8 µg/mL)

Q: With “GIGKFLHAAKKFAKAFVAEIMNS-NH2 [Ala-Magainin]” as the compound, how does the MIC (S. mutans Ingbritt [1]; Ingbritt, 24 h) read?
A: 7.1±0.7^c μM

Q: And the MIC (F. nucleatum ATCC 25586 [2]; ATCC 25586, 24 h)?
A: 0.6±0.1^c μM

Q: What about the “Therapeutic Index (hemolysis)” value (sheep red blood cells; HC50/MDC50 (F. nucleatum), given as x : 1) of the same compound?
A: 24 : 1

Q: What about the “Hemolysis (HC50)” value (sheep red blood cells; pH 7.4) of the same compound?
A: 9.6 ± 0.9 µM

Q: What about the IC50 ([5]; HEK-293 cells 5×10^3, EMEM + 10% FBS, 28 h, MTS, A490, linear regression, maximum peptide concentration = 1000 µM) of the same compound?
A: 5.6 ± 1.4 µM

Q: What about the “Therapeutic Index (proliferation)” value ([5]; IC50/MDC50 (F. nucleatum), given as x : 1) of the same compound?
A: 14.0 : 1

Q: And the MBC (S. mutans Ingbritt [3]; Ingbritt)?
A: 3.4±0.5^c μM

Q: And the MBC (F. nucleatum ATCC 25586 [4]; ATCC 25586)?
A: 0.4±0.1^c μM
